Laboratory results: patent publication US20160221948A1, “NITROGEN-CONTAINING SATURATED HETEROCYCLIC COMPOUND” (SUMITOMO CHEMICAL COMPANY, LIMITED, priority 2013, published 2016)

Experiments:
[1] = Pharmacokinetic test (PK test) using rodents; format: in vivo; details: mouse, brain and plasma; mice, 10 mg/kg oral, an hour and 4 hours after; read-out: brain-plasma concentration ratio
Description: Moreover, it was verified, as the results of a pharmacokinetic test (PK test) using rodents, that the compound of the present invention has more excellent in vivo kinetics, central nervous system penetration, and exposure level, compared with the pyrrolidine derivative described in Patent Literature 1. In particular, the following Test Example 8 was performed.
Pharmacokinetic Test (PK Test) Using Rodents
Compounds of the present invention were orally administered to mice at a dose of 10 mg/kg, and an hour and 4 hours after, the plasma and the brain were collected, concentrations of the administered compounds were measured by LC/MS/MS. As well, protein binding rates in the plasma and the brain were measured with equilibrium dialysis method, and concentrations of non-binding compounds were calculated. The brain-plasma concentration ratio was about 5 in any cases of an hour and 4 hours after for compounds obtained in Examples 7, 14, 15, 16, 17, 18, 20, 21, 27, 40, and 50, which indicated excellent central nervous system penetration.

human SSTR4 = human SSTR4 (Homo sapiens, UniProt P31391); test: Evaluation of agonist activities using human SSTR4-stably expressing cells (aequorin luminescence); format: cell-based; parameters: expressed in transfected cells; host or cells: HEK293; details: for EC50: luminescence signal, 1 μmol/L somatostatin taken as 100%; for SSTR4 agonist activity compared with other compounds: Tables 25 to 27
Description: Evaluation of Agonist Activities Using Cells that stably expressing human-derived SSTR4 (human SSTR4-stably expressing cells)
(1) Human SSTR4-Stably Expressing Cells
Human SSTR4-stably expressing cells were prepared, and cultured. Specifically, HEK293 cells, human kidney-derived cells, were used as host cells. By introducing pcDNA3.1 (cat. No. V79020, invitrogen, Carlsbad, Calif., USA) to which human SSTR gene was inserted into HEK293 cells, human SSTR4-stably expressing cell line was obtained. For selection, G418 (cat. No. 16513-84, Nacalai tesque, Japan) was used.
As the culture medium, D-MEM medium (cat. No. 11995, GIBCO, USA), containing 10% FBS and 200 μg/mL G418, was used, the culture was performed in a 225 cm^2 flask (cat. No. 11-006-010, Iwaki, Japan).
At about 80% confluence, the cells were harvested by treating with 20-fold diluted 0.25% Trypsin-EDTA (cat. No. 35554-64, Nacalai, tesque, Japan). The harvested cells were prepared at a reaction medium composed of Hanks Buffer (cat. No. 14065-056, invitrogen, Carlsbad, Calif., USA)/20 mM Hepes (cat. No. 15630-080, invitrogen, Carlsbad, Calif., USA), and 0.1% BSA (cat. No. A7906, Sigma Aldrich, USA) to 70000 cells/mL. Gα16 and apoaequorin were transiently introduced to the harvested cells, and the cells were seeded to a 384 well plate (cat. No. 781090, Greiner, Germany) at about 2000 cells/30 μL/well. On the next day of cell seeding, Coelenterazine H (cat. No. S2011, Promega, USA) was added to each well (10 μL/well) to make a final concentration of 0.5 μmol/L, and the plate was centrifuged. Then, the plate was left at room temperature for 4 hours in shaded state.
(2) Preparation of Test Compounds
DMSO solution of each test compound having 1000-fold larger concentration than the final concentration was prepared. The DMSO solutions were made to have 10-fold concentration than the final concentration with Hanks/20 mmol/L Hepes/0.1% BSA.
(3) Evaluation of Agonist Activity
For detection of luminescence signal due to SSTR4-stimulation, FDSS7000 (manufactured by Hamamatsu Photonics K.K.) was used. To plates having cells and the luminescence substrate, solutions of test compounds were added, then each luminescence signal was measured for 90 seconds, and each relative luminescence unit (RLU) was calculated. Based on luminescence signal from the wells to which a 1 μmol/L somatostatin solution was added taken as 100%, agonist activity of each test compound was evaluated.

Slc:ddY mice [2] = test: Mouse novel object recognition test (mORT); format: in vivo; details: 3 mg/kg (oral), administered before the first trial
Description: Evaluation of cognitive function using mouse novel object recognition test (hereinafter, may be called “mORT”)
In the mORT using Slc:ddY mice (male, Japan SLC, Inc.) with body weight of 25-45 g or 35-40 g, memory deterioration to familiar subject depending on the interval time between the first trial (training) and the second trial (test) is observed. If the second trial is performed 24 hours after performing the first trial, significant forgetting is observed. […] […] (discrimination index as indexes for cognitive function are shown: 0.5% MC receiving group, 0.054±0.026; 3 mg/kg receiving group, 0.245±0.066.)

Slc:ddY mice [3] = test: Mouse Y-shaped maze test, scopolamine-induced memory impairment; format: in vivo; details: for spontaneous alternations: Scopolamine HBr 0.6 mg/kg subcutaneous
Description: Evaluation of amelioration in cognitive impairment using mouse Y-shaped maze test (hereinafter, may be called “Y-maze test”)
In the Y-maze test using Slc:ddY mice (male, Japan SLC, Inc.) with body weight of 25-35 g or 27-30 g, when 0.6 mg/kg of Scopolamine HBr (cat. No. S0929, Sigma Aldrich, USA) is subcutaneously administered to mice, memory impairment is caused, and reducing in spontaneous alternation is observed. Accordingly, mice were pre-treated by orally receiving compounds involved with the present invention, and ameliorating action in memory impairment was evaluated. […] (hereinafter, spontaneous alternations in each group in Example 21 are shown: 0.5% MC receiving group, 71.2±3.5; Scopolamine receiving group, 47.5±2.6; 1 mg/kg receiving group, 60.7±2.6; 3 mg/kg receiving group, 64.6±2.2.)

Chain of human SSTR4 (P31391 whole entry): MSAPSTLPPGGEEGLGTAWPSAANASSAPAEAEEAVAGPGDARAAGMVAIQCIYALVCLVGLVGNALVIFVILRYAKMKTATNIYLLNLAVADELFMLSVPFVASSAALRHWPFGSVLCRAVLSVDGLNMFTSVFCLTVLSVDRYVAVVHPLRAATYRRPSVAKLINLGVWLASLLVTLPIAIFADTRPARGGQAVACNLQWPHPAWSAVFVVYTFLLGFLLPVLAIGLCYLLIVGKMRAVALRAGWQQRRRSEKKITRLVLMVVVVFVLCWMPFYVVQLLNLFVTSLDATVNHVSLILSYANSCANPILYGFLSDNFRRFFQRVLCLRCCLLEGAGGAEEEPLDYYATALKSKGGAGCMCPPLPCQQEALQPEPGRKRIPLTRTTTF

Kp [1] | EC50 (human SSTR4) [nM] | SSTR4 agonist activity compared with other compounds (human SSTR4) | SMILES | memory enhancing action (Slc:ddY mice [2]) | spontaneous alternations (Slc:ddY mice [3]; 1 mg/kg oral) | spontaneous alternations (Slc:ddY mice [3]; 3 mg/kg oral) | ameliorating action in memory impairment (Slc:ddY mice [3]; at 1 or 3 mg/kg (oral))
~5 | 4.8 | – | CN1CCC[C@H](C(=O)NC(C)(C)c2ccccc2Cl)C1 [Example 40, (3S)—N-[2-(2-chlorophenyl)propane-2-yl]-1-methylpiperidine-3-carboxamide] | – | – | – | –
~5 | 1.3 | stronger SSTR4 agonist activity | CN1CCC[C@H](C(=O)NC(C)(C)c2ccc(Cl)cc2Cl)C1 [Example 20, (3S)—N-[2-(2,4-dichlorophenyl)propane-2-yl]-1-methylpiperidine-3-carboxamide] | – | – | – | –
~5 | 2.3 | stronger SSTR4 agonist activity | CN1CCCC(C(=O)NC(C)(C)c2ccc(Cl)cc2Cl)C1 (stereo not drawn) [Example 17] | – | – | – | –
~5 | 4.3 | stronger SSTR4 agonist activity | CN1CCCC(C(=O)NC(C)(C)c2cc(Cl)cc(Cl)c2)C1 (stereo not drawn) [Example 7] | – | – | – | –
~5 | 3.5 | stronger SSTR4 agonist activity | CN1CCCC(C(=O)NC(C)(C)c2cc(Cl)ccc2Cl)C1 (stereo not drawn) [Example 15] | – | – | – | –
– | – | stronger SSTR4 agonist activity | CN1CCC[C@H](C(=O)NC(C)(C)c2cccc3ccccc23)C1 [Example 2, (3S)-1-methyl-N-[2-(naphthalene-1-yl)propane-2-yl]pyperidine-3-carboxamide] | a tendency to enhance memory | 59.6±3.2 | 65.0±1.8 | significant ameliorating action in memory impairment
~5 | 4.3 | – | Cc1ccc(Cl)cc1C(C)(C)NC(=O)[C@H]1CCCN(C)C1 [Example 50, (3S)—N-[2-(5-chloro-2-methylphenyl)propane-2-yl]-1-methylpiperidine-3-carboxamide] | – | – | – | –
~5 | 2 | stronger SSTR4 agonist activity | CN1CCC[C@H](C(=O)NC(C)(C)c2cc(Cl)cc(Cl)c2)C1 [Example 18] | – | – | – | –
~5 | 2.3 | stronger SSTR4 agonist activity | CN1CCCC(C(=O)NC(C)(C)c2cccc(Cl)c2Cl)C1 (stereo not drawn) [Example 16] | – | – | – | –
~5 | 2.1 | stronger SSTR4 agonist activity | Cc1c(Cl)cccc1C(C)(C)NC(=O)[C@H]1CCCN(C)C1 [Example 27, (3S)—N-[2-(3-chloro-2-methylphenyl)propane-2-yl]-1-methylpiperidine-3-carboxamide] | – | – | – | –
